Measurements taken from paper PMC9005681, “Use of AD Informer Set compounds to explore validity of novel targets in Alzheimer's disease pathology” (Alzheimer's & Dementia : Translational Research & Clinical …, 2022).
Values joined by “and” are separate entries in the source; they are usually repeats but may differ in a detail not shown here. Equal values may be shown once.

Columns and labels:
Assay in all cases: PDSP GPCR panel primary binding assays at 10 μM
Conditions in all cases: primary assay
[1] = target: T1, cloned human or rodent CNS receptors, channels, and transporters (PDSP panel) (Homo sapiens, UniProt P25100)
T1 construct: expressed in transfected cells
T1 sequence (P25100 1-572): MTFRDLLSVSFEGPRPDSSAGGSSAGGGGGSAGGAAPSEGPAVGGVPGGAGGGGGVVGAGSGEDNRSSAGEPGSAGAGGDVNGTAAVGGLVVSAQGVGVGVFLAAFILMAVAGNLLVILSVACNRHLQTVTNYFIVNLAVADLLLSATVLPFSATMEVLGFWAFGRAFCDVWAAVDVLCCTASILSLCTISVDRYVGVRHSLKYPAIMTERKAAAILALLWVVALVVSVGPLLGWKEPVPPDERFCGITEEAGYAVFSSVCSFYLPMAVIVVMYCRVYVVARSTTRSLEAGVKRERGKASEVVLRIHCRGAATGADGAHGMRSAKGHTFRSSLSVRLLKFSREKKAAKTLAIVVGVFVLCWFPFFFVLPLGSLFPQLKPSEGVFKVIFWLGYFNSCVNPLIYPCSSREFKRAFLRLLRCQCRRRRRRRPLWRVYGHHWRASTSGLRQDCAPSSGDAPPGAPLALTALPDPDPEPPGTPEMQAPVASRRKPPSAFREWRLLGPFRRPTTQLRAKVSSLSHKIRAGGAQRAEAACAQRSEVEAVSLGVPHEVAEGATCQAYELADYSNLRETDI
How it was run: (§1)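 Primary screen: 10 μM, quadruplicate, displacement of radio-labeled standard ligand. Hit cut-off >50% mean displacement → secondary 11-point dose-response, triplicate. H3, PBR, GABAA excluded from follow-up.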

[2] = target: T2, cloned human or rodent CNS receptors, channels, and transporters (PDSP panel) (Homo sapiens, UniProt P08173)
T2 construct: expressed in transfected cells
T2 sequence (P08173 1-479): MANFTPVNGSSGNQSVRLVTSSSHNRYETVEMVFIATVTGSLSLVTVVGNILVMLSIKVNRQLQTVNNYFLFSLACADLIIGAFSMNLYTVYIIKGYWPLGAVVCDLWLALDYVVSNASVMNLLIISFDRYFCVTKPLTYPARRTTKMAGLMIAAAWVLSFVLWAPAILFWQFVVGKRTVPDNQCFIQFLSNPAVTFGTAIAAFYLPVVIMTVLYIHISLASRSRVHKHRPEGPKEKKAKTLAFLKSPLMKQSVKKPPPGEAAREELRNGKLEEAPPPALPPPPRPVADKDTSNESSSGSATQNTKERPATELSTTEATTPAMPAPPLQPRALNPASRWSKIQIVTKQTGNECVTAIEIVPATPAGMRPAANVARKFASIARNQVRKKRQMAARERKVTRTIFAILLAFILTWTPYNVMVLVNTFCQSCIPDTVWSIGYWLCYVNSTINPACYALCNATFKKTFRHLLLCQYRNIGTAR
How it was run: as §1

[3] = target: T3, cloned human or rodent CNS receptors, channels, and transporters (PDSP panel) (Homo sapiens, UniProt P46098)
T3 construct: expressed in transfected cells
T3 sequence (P46098 24-478): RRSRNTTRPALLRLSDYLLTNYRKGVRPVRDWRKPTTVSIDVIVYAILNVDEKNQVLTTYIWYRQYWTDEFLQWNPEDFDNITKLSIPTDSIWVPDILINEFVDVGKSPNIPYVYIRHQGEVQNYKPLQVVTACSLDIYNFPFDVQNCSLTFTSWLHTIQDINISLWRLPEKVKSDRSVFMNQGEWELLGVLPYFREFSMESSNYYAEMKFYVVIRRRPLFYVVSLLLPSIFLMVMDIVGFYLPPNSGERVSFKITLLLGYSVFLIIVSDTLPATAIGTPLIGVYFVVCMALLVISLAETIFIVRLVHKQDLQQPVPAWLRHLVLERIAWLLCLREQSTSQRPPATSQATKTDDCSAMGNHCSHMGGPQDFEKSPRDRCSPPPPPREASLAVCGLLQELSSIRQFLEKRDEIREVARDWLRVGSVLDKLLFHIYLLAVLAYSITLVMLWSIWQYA
How it was run: as §1

[4] = target: T4, cloned human or rodent CNS receptors, channels, and transporters (PDSP panel) (Homo sapiens, UniProt P31645)
T4 construct: expressed in transfected cells
T4 sequence (P31645 whole entry): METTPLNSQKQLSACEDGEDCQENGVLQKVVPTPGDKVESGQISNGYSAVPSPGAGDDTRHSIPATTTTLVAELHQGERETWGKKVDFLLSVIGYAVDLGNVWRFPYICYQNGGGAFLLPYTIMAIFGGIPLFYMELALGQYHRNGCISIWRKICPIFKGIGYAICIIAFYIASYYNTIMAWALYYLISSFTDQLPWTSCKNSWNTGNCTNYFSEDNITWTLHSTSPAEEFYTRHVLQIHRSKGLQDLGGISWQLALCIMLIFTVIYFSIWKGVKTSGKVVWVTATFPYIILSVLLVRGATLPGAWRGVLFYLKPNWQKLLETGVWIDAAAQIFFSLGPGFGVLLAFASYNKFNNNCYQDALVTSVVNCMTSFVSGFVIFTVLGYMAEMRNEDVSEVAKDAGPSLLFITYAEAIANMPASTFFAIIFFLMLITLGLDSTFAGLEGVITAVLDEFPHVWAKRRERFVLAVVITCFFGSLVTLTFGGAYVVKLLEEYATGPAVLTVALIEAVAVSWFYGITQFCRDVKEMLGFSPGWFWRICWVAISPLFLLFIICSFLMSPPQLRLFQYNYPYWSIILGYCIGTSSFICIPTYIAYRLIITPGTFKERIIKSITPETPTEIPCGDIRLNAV
How it was run: as §1

[5] = target: T5, cloned human or rodent CNS receptors, channels, and transporters (PDSP panel) (Homo sapiens, UniProt Q01959)
T5 construct: expressed in transfected cells
T5 sequence (Q01959 whole entry): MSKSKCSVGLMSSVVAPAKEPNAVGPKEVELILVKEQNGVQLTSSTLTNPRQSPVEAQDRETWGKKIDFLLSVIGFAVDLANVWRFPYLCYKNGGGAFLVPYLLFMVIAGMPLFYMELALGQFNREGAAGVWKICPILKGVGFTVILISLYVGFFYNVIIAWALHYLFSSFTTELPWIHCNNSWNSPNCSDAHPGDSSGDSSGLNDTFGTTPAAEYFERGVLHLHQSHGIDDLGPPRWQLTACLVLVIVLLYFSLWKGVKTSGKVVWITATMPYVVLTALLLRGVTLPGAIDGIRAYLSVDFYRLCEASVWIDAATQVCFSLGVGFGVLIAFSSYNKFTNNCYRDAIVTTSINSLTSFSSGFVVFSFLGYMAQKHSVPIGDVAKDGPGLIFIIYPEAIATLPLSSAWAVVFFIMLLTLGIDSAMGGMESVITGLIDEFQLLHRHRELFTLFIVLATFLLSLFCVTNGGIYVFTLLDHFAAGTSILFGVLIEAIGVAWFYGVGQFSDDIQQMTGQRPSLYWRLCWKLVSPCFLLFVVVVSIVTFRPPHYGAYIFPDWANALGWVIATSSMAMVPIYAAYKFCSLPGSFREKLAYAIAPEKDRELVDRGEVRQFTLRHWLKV
How it was run: as §1

[6] = target: T6, cloned human or rodent CNS receptors, channels, and transporters (PDSP panel) (Homo sapiens, UniProt P28335)
T6 construct: expressed in transfected cells
T6 sequence (P28335 33-458): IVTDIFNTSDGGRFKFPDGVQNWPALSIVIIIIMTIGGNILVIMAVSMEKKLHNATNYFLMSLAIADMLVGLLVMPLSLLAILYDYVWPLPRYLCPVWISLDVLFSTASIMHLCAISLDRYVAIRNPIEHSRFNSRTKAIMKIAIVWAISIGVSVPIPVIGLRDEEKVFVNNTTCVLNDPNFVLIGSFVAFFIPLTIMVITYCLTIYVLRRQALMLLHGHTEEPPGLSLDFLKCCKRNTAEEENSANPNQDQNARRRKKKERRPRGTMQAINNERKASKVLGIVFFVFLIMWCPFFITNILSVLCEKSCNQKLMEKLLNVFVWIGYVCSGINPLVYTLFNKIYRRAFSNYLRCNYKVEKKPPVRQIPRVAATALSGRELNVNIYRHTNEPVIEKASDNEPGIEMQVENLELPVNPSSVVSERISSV
How it was run: as §1

Cl.NC(=O)c1cnc(N[C@@H]2CCCC[C@@H]2N)nc1Nc1cccc(-n2nccn2)c1 [UNC10302682A, P505-15 (PRT06207 HCl)]
Inhibition 1 ([1]; Receptor Alpha1D, 10 μM): 22.56%
Inhibition 2 ([1]; Receptor Alpha1D, 10 μM): 13.18%
Inhibition 3 ([1]; Receptor Alpha1D, 10 μM): 20.43%
Inhibition 4 ([1]; Receptor Alpha1D, 10 μM): 14.74%
Mean % ([1]; Receptor Alpha1D, 10 μM, mean of Inhibition 1-4): 17.73%
Inhibition 1 ([2]; Receptor M4, 10 μM): 24.23%
Inhibition 2 ([2]; Receptor M4, 10 μM): 6.78%
Inhibition 3 ([2]; Receptor M4, 10 μM): 21.48%
Inhibition 4 ([2]; Receptor M4, 10 μM): 18.49%
Mean % ([2]; Receptor M4, 10 μM, mean of Inhibition 1-4): 17.75%
Inhibition 1 ([3]; Receptor 5-HT3, 10 μM): 66.83%
Inhibition 2 ([3]; Receptor 5-HT3, 10 μM): 77.09%
Inhibition 3 ([3]; Receptor 5-HT3, 10 μM): 73.28%
Inhibition 4 ([3]; Receptor 5-HT3, 10 μM): 75.45%
Mean % ([3]; Receptor 5-HT3, 10 μM, mean of Inhibition 1-4): 73.16%
Inhibition 2 ([4]; Receptor SERT, 10 μM): 8.4% and 8.39%
Inhibition 3 ([4]; Receptor SERT, 10 μM): 11.88% and 10.26%
Inhibition 4 ([4]; Receptor SERT, 10 μM): 20.53% and 20.37%
Mean % ([4]; Receptor SERT, 10 μM, mean of Inhibition 1-4): 14.96% and 10.68%
Inhibition 1 ([5]; Receptor DAT, 10 μM): 65.15%
Inhibition 2 ([5]; Receptor DAT, 10 μM): 70.33%
Inhibition 3 ([5]; Receptor DAT, 10 μM): 66.98%
Inhibition 4 ([5]; Receptor DAT, 10 μM): 72.6%
Mean % ([5]; Receptor DAT, 10 μM, mean of Inhibition 1-4): 68.77%
Inhibition 1 ([6]; Receptor 5-HT2C, 10 μM): 78.04%
Inhibition 2 ([6]; Receptor 5-HT2C, 10 μM): 64.79%
Inhibition 3 ([6]; Receptor 5-HT2C, 10 μM): 67.73%
Inhibition 4 ([6]; Receptor 5-HT2C, 10 μM): 44.66%
Mean % ([6]; Receptor 5-HT2C, 10 μM, mean of Inhibition 1-4): 63.81%

CC(=O)N1CCC(NC(=O)NC23CC4CC(CC(C4)C2)C3)CC1 [UNC10302683A, AR9281]
Mean % ([1]; Alpha1D, mean inhibition): -8.81%
Inhibition 1 ([1]; Alpha1D, replicate 1): 7.07%
Inhibition 2 ([1]; Alpha1D, replicate 2): -12.11%
Inhibition 3 ([1]; Alpha1D, replicate 3): -12.82%
Inhibition 4 ([1]; Alpha1D, replicate 4): -17.37%
Mean % ([2]; M4, mean inhibition): 12.52%
Inhibition 1 ([2]; M4, replicate 1): 4.48%
Inhibition 2 ([2]; M4, replicate 2): 16.88%
Inhibition 3 ([2]; M4, replicate 3): 4.25%
Inhibition 4 ([2]; M4, replicate 4): 24.46%
Mean % ([3]; 5-HT3, mean inhibition): 13.87%
Inhibition 1 ([3]; 5-HT3, replicate 1): 9.48%
Inhibition 2 ([3]; 5-HT3, replicate 2): 13.6%
Inhibition 3 ([3]; 5-HT3, replicate 3): -1.71%
Inhibition 4 ([3]; 5-HT3, replicate 4): 34.11%
Mean % ([4]; SERT, mean inhibition): -8.86% and -6.55%
Inhibition 1 ([4]; SERT, replicate 1): -9.63% and -17.8%
Inhibition 2 ([4]; SERT, replicate 2): -14.12% and -5.23%
Inhibition 3 ([4]; SERT, replicate 3): -7.44% and -8.27%
Inhibition 4 ([4]; SERT, replicate 4): -4.24% and 5.12%
Mean % ([5]; DAT, mean inhibition): 71.25%
Inhibition 1 ([5]; DAT, replicate 1): 78.11%
Inhibition 2 ([5]; DAT, replicate 2): 65.9%
Inhibition 3 ([5]; DAT, replicate 3): 74.33%
Inhibition 4 ([5]; DAT, replicate 4): 66.66%
Mean % ([6]; 5-HT2C, mean inhibition): -19.88%
Inhibition 1 ([6]; 5-HT2C, replicate 1): -9.33%
Inhibition 2 ([6]; 5-HT2C, replicate 2): -11.78%
Inhibition 3 ([6]; 5-HT2C, replicate 3): -20.61%
Inhibition 4 ([6]; 5-HT2C, replicate 4): -37.79%
